Results on 13 compounds are retold here after ChEMBL document CHEMBL3045095, “Synthesis and biological evaluation of some Schiff bases of 4-amino-5-(4-methylsulfonyl)benzyl-2,4-dihydro-3H-[1,2,4]-triazole-3-thione” (Med Chem Res, 2013).

Values after ≈ are worked out from the molar mass of the structure shown. Active and inactive are the calls of the source. The rule behind the calls is not given here. Some results are limits rather than exact numbers.

Test [1] relates to HeLa. Description: Cytotoxicity against Homo sapiens (human) HeLa cells assessed as cell death at 12.5 uM after 48 hr by MTT assay. Type of test: functional.
Test [2] deals with Escherichia coli. Description: Antibacterial activity against Escherichia coli after 16 to 18 hr by serial dilution method. Type of test: functional.
Test [3] deals with HeLa. Description: Cytotoxicity against Homo sapiens (human) HeLa cells assessed as cell death at 25 uM after 48 hr by MTT assay. The class given is functional. A general note: Formazan colour is commonly taken as a measure of viable cells.
Test [4] deals with HeLa. Description: Cytotoxicity against Homo sapiens (human) HeLa cells after 48 hr by MTT assay. The class given is functional, cell-based.
The subject of test [5] is HeLa. Kind of test: Cytotoxicity against Homo sapiens (human) HeLa cells assessed as cell death at 100 uM after 48 hr by MTT assay. Type of test: functional.
For test [6], the system named is Bacillus cereus. Kind of test: Antibacterial activity against Bacillus cereus after 16 to 18 hr by serial dilution method. Type of test: functional.
For test [7], the system named is Candida albicans. Kind of test: Antifungal activity against Candida albicans after 16 to 18 hr by serial dilution method. Type of test: functional.
For test [8], the system named is Pseudomonas aeruginosa. Kind of test: Antibacterial activity against Pseudomonas aeruginosa after 16 to 18 hr by serial dilution method. Type of test: functional.
The subject of test [9] is Staphylococcus aureus. Description: Antibacterial activity against Staphylococcus aureus after 16 to 18 hr by serial dilution method. The class given is functional.
In test [10] the test system is HeLa. Description: Cytotoxicity against Homo sapiens (human) HeLa cells assessed as cell death at 50 uM after 48 hr by MTT assay. The class given is functional.
Test [11] relates to HeLa. Description: Cytotoxicity against Homo sapiens (human) HeLa cells assessed as cell death at 2.5 uM after 48 hr by MTT assay. Type of test: functional.

Take `CSc1ccc(/C=N/n2c(Cc3ccc(S(C)(=O)=O)cc3)n[nH]c2=S)cc1`: the Activity was 27.94% in test [1], 32.66% in test [3], 71.86% in test [5] and 57.5% in test [10]. Further, the MIC in test [2], in test [6], in test [7], in test [8] and in test [9] was 3.12 µg/mL (≈ 7.47 µM) in each case. The EC50 (as a rule, the concentration at which the effect is half-maximal) in test [4] stood at 50 µM.

For the compound `OC(Cn1cncn1)(Cn1cncn1)c1ccc(F)cc1F` [FLUCONAZOLE], inhibition of growth in test [7] (MIC) required 0.78 µg/mL (≈ 2.55 µM).

With `CS(=O)(=O)c1ccc(Cc2n[nH]c(=S)n2/N=C/c2ccccc2F)cc1`, the Activity in test [1] is 16.48%; in test [3] it was 14.03%; in test [5], 28.08%; in [10], 21.9%. Further, the MIC (commonly the least concentration at which growth counts as inhibited) in test [2] was found to be 3.12 µg/mL (≈ 8 µM); in test [6] it was 3.12 µg/mL (≈ 8 µM); in test [7], 3.12 µg/mL (≈ 8 µM); in test [8], 6.25 µg/mL (≈ 16 µM); in test [9], 6.25 µg/mL (≈ 16 µM). In [4], this compound showed an EC50 of over 100 µM.

On to `CS(=O)(=O)c1ccc(Cc2n[nH]c(=S)n2/N=C/c2cccnc2)cc1`, for which the Activity in [1] came to 16.89%; in test [3] it was 19.36%; in [5], 45.1%; in test [10], 14%. For the same compound, the minimum inhibitory concentration (MIC) in test [2] was 6.25 µg/mL (≈ 16.7 µM); in test [6], 12.5 µg/mL (≈ 33.5 µM); in test [7] it was 6.25 µg/mL (≈ 16.7 µM); in [8] it was 6.25 µg/mL (≈ 16.7 µM); in [9] it was 6.25 µg/mL (≈ 16.7 µM). The EC50 in [4] is over 100 µM.

In the case of `CS(=O)(=O)c1ccc(Cc2n[nH]c(=S)n2/N=C/c2ccc(-c3ccccc3)cc2)cc1`, the Activity worked out at 30.44% in [1], 37.32% in [3], 69.54% in [5] and 61.56% in test [10]. Moreover, the MIC came to 3.12 µg/mL (≈ 6.97 µM) in test [2]; 6.25 µg/mL (≈ 13.9 µM) in test [6]; 6.25 µg/mL (≈ 13.9 µM) in test [7]; 6.25 µg/mL (≈ 13.9 µM) in test [8]; 6.25 µg/mL (≈ 13.9 µM) in test [9]. In [4], this compound came in with an EC50 of 50 µM.

`COc1ccc2cc(/C=N/n3c(Cc4ccc(S(C)(=O)=O)cc4)n[nH]c3=S)ccc2c1`: the Activity in test [1] was found to be 43.71%; in test [3], 42.01%; in test [5], 64.6%; in test [10], 54.13%. The MIC in test [2], in test [6], in test [7], in [8] and in test [9] was 6.25 µg/mL (≈ 13.8 µM) each time. Also, in test [4], the EC50 worked out at 50 µM.

Consider `CC1(C)S[C@@H]2[C@H](NC(=O)Cc3ccccc3)C(=O)N2[C@H]1C(=O)O` [PENICILLIN G], for which the MIC in [2], in test [6], in test [8] and in test [9] was 0.097 µg/mL (≈ 0.29 µM) each time.

Consider `CS(=O)(=O)c1ccc(Cc2n[nH]c(=S)n2/N=C/c2c(F)cccc2Cl)cc1`, for which the Activity was 49.84% in test [1], 55.32% in test [3], 77.28% in test [5] and 70.55% in test [10]. The MIC came to 6.25 µg/mL (≈ 14.7 µM) in test [2]; 3.12 µg/mL (≈ 7.35 µM) in test [6]; 3.12 µg/mL (≈ 7.35 µM) in [7]; 3.12 µg/mL (≈ 7.35 µM) in [8]; 6.25 µg/mL (≈ 14.7 µM) in test [9]. In [4], this compound gave an EC50 of 25 µM.

Consider `CS(=O)(=O)c1ccc(Cc2n[nH]c(=S)n2/N=C/c2ccccc2Cl)cc1`, for which the Activity came to 34.65% in test [1], 36.26% in test [3], 76.53% in test [5] and 42.65% in test [10]. Further, the MIC was 6.25 µg/mL (≈ 15.4 µM) in test [2]; 6.25 µg/mL (≈ 15.4 µM) in [6]; 3.12 µg/mL (≈ 7.68 µM) in test [7]; 3.12 µg/mL (≈ 7.68 µM) in [8]; 12.5 µg/mL (≈ 30.7 µM) in [9].

In the case of `CS(=O)(=O)c1ccc(Cc2n[nH]c(=S)n2/N=C/c2ccc(F)cc2)cc1`, the results for the Activity in test [1], in [5] and in test [10] were 2.8%, 57.79% and 26.25%, respectively. In addition, the MIC in [2] was determined as 6.25 µg/mL (≈ 16 µM); in test [6], 6.25 µg/mL (≈ 16 µM); in [7] it was 3.12 µg/mL (≈ 8 µM); in [8], 6.25 µg/mL (≈ 16 µM); in test [9] it was 12.5 µg/mL (≈ 32 µM). For the same compound, the outcome in test [3] was inactive. This compound returned an EC50 in test [4] of 100 µM.

With `CS(=O)(=O)c1ccc(Cc2n[nH]c(=S)n2/N=C/c2ccc(Cl)cc2)cc1`, the Activity in test [1] is reported as 44.73%; in test [3] it was 47.51%; in test [5], 57.04%; in test [10], 53.99%. The MIC in test [2] was determined as 12.5 µg/mL (≈ 30.7 µM); in test [6], 6.25 µg/mL (≈ 15.4 µM); in [7], 1.56 µg/mL (≈ 3.84 µM); in test [8], 6.25 µg/mL (≈ 15.4 µM); in test [9] it was 6.25 µg/mL (≈ 15.4 µM). The compound further showed an EC50 in test [4] of 50 µM.

For the compound `COc1cccc2c1C(=O)c1c(O)c3c(c(O)c1C2=O)C[C@@](O)(C(=O)CO)C[C@@H]3O[C@H]1C[C@H](N)[C@H](O)[C@H](C)O1` [DOXORUBICIN], the midpoint of the response in test [4], the EC50, lay at 2.5 µM. The Activity in test [11] came out at 78.2%.

As for `CS(=O)(=O)c1ccc(Cc2n[nH]c(=S)n2/N=C/c2cccs2)cc1`, the Activity in test [1] is given as 28.69%; in test [3], 33.33%; in test [5], 61.09%; in [10] it was 48.59%. Moreover, the minimal inhibitory concentration (MIC) worked out at 3.12 µg/mL (≈ 8.26 µM) in [2]; 12.5 µg/mL (≈ 33 µM) in test [6]; 3.12 µg/mL (≈ 8.26 µM) in [7]; 6.25 µg/mL (≈ 16.5 µM) in [8]; 12.5 µg/mL (≈ 33 µM) in [9]. In test [4], this compound registered an EC50 of 100 µM.
